{"source": "patent US20250270170A1", "about": "“2,3-DIMETHOXY-5-METHYL-1,4-BENZOQUINONE ALKYL ALCOHOL DERIVATIVE AND USE THEREOF” (BEIJING ANJIANXI BIO-MEDICAL TECHNOLOGY CO., LTD., priority 2021, published 2025)", "key": {"[1]": {"assay": "Example 8: body weight of ECA109 tumor-bearing mice", "type": "in vivo, nude mice", "conditions": "DDP 5 mg/kg i.p. QW×4", "from_the_text": "The assay animals, calculation of tumor volume (TV), end of assay, data recording, calculation formula of tumor growth inhibition rate TGI (%), and statistical analysis method were the same as those in Example 3; the preparation of the administration formulation of the compound of formula (I) was the same as that in Example 5. […] The cells were pipetted with a pipette to disperse them evenly, and the cells were put into a 50-mL centrifuge tube, which was placed in an ice box. A 1-mL syringe was used to draw the cell suspension, which was injected subcutaneously into the axilla of the front right limb of a […]. Each animal was inoculated with 200 μL (1.0×10^7 cells/mouse) to establish an ECA109 transplanted tumor model in nude mice. After the inoculation, the animal status and tumor growth were regularly observed, and the tumor diameter was measured using an electronic vernier caliper. The data were input into an Excel spreadsheet to calculate the tumor volume. When the tumor volume reached 100 to 300 mm^3, animals in good health and with similar tumor volumes were selected and divided into groups using randomized block method. The day of grouping was regarded as the first day of the assay (D1). After the start of the assay, the tumor diameter was measured twice a week, the tumor volume was calculated, and the animal body weight was also weighed and recorded. [table]"}, "[2]": {"assay": "Example 11: body weight in cisplatin-induced acute kidney damage model", "type": "in vivo, C57BL/6J mice", "conditions": "mouse, in vivo", "method": "42 male C57BL/6J mice (age: 6 to 8 weeks, body weight 18-20 g, certificate number: 11400700238365) were purchased from Si Pei Fu (Beijing) Biotechnology Co., Ltd., and raised in an SPF-grade animal room of the Institute of Materia Medica, Chinese Academy of Medical Sciences, at a temperature of 20 to 25° C., a relative humidity of 40% to 70%, and a cycle of 12 hours of light and 12 hours of dark. The animals had free access to water and food. After 3 days of normal feeding, mice with good physical conditions after the veterinary examination were selected for this assay. Before grouping, a marker was used to mark on the base of the animals' tail. After grouping, each animal was marked with an ear cutout (7 mice in each group).\nAssay animals: 42 7-week-old male C57 mice were used for animal testing after an adaptive feeding.\nGroup 1: blank control group;\nThe preparation of the R01 formulation administration test solution was the same as that in Example 5: an appropriate amount of the R01 formulation was weighed according to the three dosages set in the assay, respectively, and an appropriate volume of 0.5% CMC-Na aqueous solution was added. The mixture was vortexed and sonicated until mixed evenly, to give the administration test solutions with concentrations of […], respectively, which were ready for use.\nAnimal testing period: 7 days (excluding adaptive feeding), hereinafter referred to as: D1-D7.\n1. The first group was a solvent control group: N=7, all mice were males (the same below); • a) 0.5% solution of sodium carboxymethyl cellulose was gavagely administered from D1 to D6 (twice a day for each animal, with an interval of 8 hours between the morning and the afternoon). • b) Physiological saline was intraperitoneally injected in one-time on D4. • c) On D7, blood was collected from the orbit for euthanasia (300 ul of serum was extracted), the left kidney was fixed in formaldehyde, and the right kidney was preserved in liquid nitrogen (WB study may be carried out).\n3) Each animal was weighed before euthanasia, and the weight was recorded. Two kidneys were weighed as soon as possible after euthanasia, and the weight was recorded. Then, the two kidneys were quickly fixed or cryopreserved, and the kidney coefficient of the mouse was calculated (kidney weight/mouse weight).\nThe body weight of the animals when being grouped for administration in each group was recorded. The body weight and the kidney weight at the end of the assay were also recorded, and the kidney coefficient was calculated. The creatinine and urea nitrogen values in the blood samples sent for testing were recorded. The kidneys were stained with HE and PAS, and the slides were scanned. A report was issued after the pathological analysis.\nThe assay data were calculated and processed statistically using Microsoft Office Excel 2007 software. Unless otherwise specified, the data were expressed as mean±standard error (Mean±SE), and t-test was used for comparison between two groups."}}, "data": [{"smiles": "N.N.[Cl][Pt][Cl]", "note": "[DDP, cisplatin]", "values": [{"measurement": "Mean animal body weight", "setting": "[1]; D1", "value": "20.8 ± 0.4", "unit": "g"}, {"measurement": "Mean animal body weight", "setting": "[1]; D5", "value": "20.3 ± 0.6", "unit": "g"}, {"measurement": "body weight loss rate", "setting": "[1]; D5", "value": "(2.1%)"}, {"measurement": "Mean animal body weight", "setting": "[1]; D8", "value": "20.5 ± 0.4", "unit": "g"}, {"measurement": "body weight loss rate", "setting": "[1]; D8", "value": "(1.4%)"}, {"measurement": "Mean animal body weight", "setting": "[1]; D12", "value": "19.4 ± 0.4", "unit": "g"}, {"measurement": "body weight loss rate", "setting": "[1]; D12", "value": "(6.7%)"}, {"measurement": "Mean animal body weight", "setting": "[1]; D15", "value": "19.9 ± 0.3", "unit": "g"}, {"measurement": "body weight loss rate", "setting": "[1]; D15", "value": "(4.3%)"}, {"measurement": "Mean animal body weight", "setting": "[1]; D19", "value": "19.0 ± 0.3", "unit": "g"}, {"measurement": "body weight loss rate", "setting": "[1]; D19", "value": "(8.5%)"}, {"measurement": "Mean animal body weight", "setting": "[1]; D22", "value": "19.5 ± 0.4", "unit": "g"}, {"measurement": "body weight loss rate", "setting": "[1]; D22", "value": "(5.9%)"}, {"measurement": "Mean animal body weight", "setting": "[1]; D26", "value": "17.7 ± 0.3", "unit": "g"}, {"measurement": "body weight loss rate", "setting": "[1]; D26", "value": "(15%)"}, {"measurement": "Mean animal body weight", "setting": "[1]; D29", "value": "17.9 ± 0.3", "unit": "g"}, {"measurement": "body weight loss rate", "setting": "[1]; D29", "value": "(14%)"}, {"measurement": "Mean animal body weight", "setting": "[1]; D33", "value": "18.7 ± 0.4", "unit": "g"}, {"measurement": "body weight loss rate", "setting": "[1]; D33", "value": "(10%)"}, {"measurement": "Mean animal body weight", "setting": "[1]; D36", "value": "18.7 ± 0.3", "unit": "g"}, {"measurement": "body weight loss rate", "setting": "[1]; D36", "value": "(10%)"}]}, {"smiles": "COC1=C(OC)C(=O)C(CCCCCCCCCCOC(=O)Cc2c(C)n(C(=O)c3ccc(Cl)cc3)c3ccc(OC)cc23)=C(C)C1=O", "note": "[compound of formula (I)]", "values": [{"measurement": "Body weight after the assay, After x (mean)", "setting": "[2]; 6 mg/kg", "value": 16.2, "unit": "g"}, {"measurement": "Body weight, Before x- after x", "setting": "[2]; 6 mg/kg", "value": 4.2, "unit": "g"}, {"measurement": "Body weight after the assay, After x (mean)", "setting": "[2]; 18 mg/kg", "value": 16.2, "unit": "g"}, {"measurement": "Body weight, Before x- after x", "setting": "[2]; 18 mg/kg", "value": 4.3, "unit": "g"}, {"measurement": "Body weight after the assay, After x (mean)", "setting": "[2]; 36 mg/kg", "value": 16.1, "unit": "g"}, {"measurement": "Body weight, Before x- after x", "setting": "[2]; 36 mg/kg", "value": 4.4, "unit": "g"}]}]}
